Reference: patent US20110207697A1, “XANTHOHUMOL COMPOSITIONS AND METHODS FOR TREATING SKIN DISEASES OR DISORDERS” (Betal, LLC, priority 2008, published 2011)

Legend:
[1] = ORAC-Total (ORAClipo + ORAChydro); details: ORAClipo + ORAChydro
Excerpt: An ORAC method for lipophilic antioxidants was further developed and validated using fluorescein as the fluorescent probe (Prior et al. 2003 J. Agric. Food Chem. 51: 3273-3279). This method has the advantage that similar assay conditions and standards can be used for both hydrophilic and lipophilic antioxidant components, such that the two values can be added together to obtain a total antioxidant capacity. In the present work, the ORAC value is expressed as the sum of values of both the water-soluble and fat-soluble parts. Green tea catechins (Polyphenon 60) were used as the control with the highest ORAC value among edible plants. Vitamin C and vitamin E were used as controls for water- and fat-soluble molecules, respectively. […] The SOAC scores are not included in this figure; ORAC values used are the sum of lipophilic and hydrophilic results. For each assay category, scaling was made logarithmic so that the plot on the chart resembles the associated rating. […] The larger the spatial area, the higher the overall antioxidative capacity. […] Both hydrophilic and lipophilic oxygen radical absorbance capacity (ORAC) assays were carried out at Brunswick Laboratory (Wareham, Mass.) based on the modified ORACfl method reported by Ou et al. (2001 J. Agric. Food Chem. 49: 4619-4626, 2002 J. Agr. Food Chem. 50: 3122-3128). Trolox, a water-soluble vitamin E analog, was used as the calibration standard. The data are expressed as mmole of Trolox equivalents per gram (mmol TE/g). The acceptable precision of the ORAC assay is a 15% relative standard deviation. Caffeic acid was used as the calibration standard. Hydroxyl radical ORAC (HOR-AC) is expressed as mmole caffeic acid equivalent per gram (mmol CAE/g). Trolox was used as the calibration standard. The peroxyl nitrite ORAC (NORAC) result is expressed as mmol TE/g. Alpha-tocopherol (vitamin E) was used as the calibration standard, and the singlet oxygen absorbance capacity (SOAC) result is expressed as mmole a-tocopherol equivalent (mmol VtE) per gram (Aubry et al. 1989). The abbreviation for the 1,1-diphenyl-2-picrylhydrazyl radical is DPPH. Radical-scavenging activity was measured by the change in absorbance at 517 nm with the DPPH result expressed as mmol TE/g. Similarly, FRAP is an abbreviation for the ferric reducing antioxidative power method, which utilizes chemical conversion of the yellow Fe 3+-2,4,6-tripyridyl s-triazine (TPTZ) complex to the blue Fe 2+-TPTZ complex by electron donation under acidic conditions (Okada and Okada 1998 J. Agric. Food Chem. 46: 401-406). The FRAP result is expressed as mmol TE/g (Ou et al. 2002b). Superoxide dismutase (SOD) was used as a calibration standard; the SOD result is expressed as kilo unit SOD equivalent (kunitSODeq) per gram.

[2] = Lipophilic oxygen radical absorbance capacity (ORAC-L); details: lipid soluble antioxidant capacity; expressed as mmol TE/g; — = No activity detected
Excerpt: Thus the ORAC method has become a widely used method for assessing antioxidant capacity in biological samples and foods. However, because of its inability to measure both hydrophilic and lipophilic antioxidants, the method has its limitations. An ORAC method for lipophilic antioxidants was further developed and validated using fluorescein as the fluorescent probe (Prior et al. 2003 J. Agric. Food Chem. 51: 3273-3279). […] In the present work, the ORAC value is expressed as the sum of values of both the water-soluble and fat-soluble parts. […] Both hydrophilic and lipophilic oxygen radical absorbance capacity (ORAC) assays were carried out at Brunswick Laboratory (Wareham, Mass.) based on the modified ORACfl method reported by Ou et al. (2001 J. Agric. Food Chem. 49: 4619-4626, 2002 J. Agr. Food Chem. 50: 3122-3128). Trolox, a water-soluble vitamin E analog, was used as the calibration standard. The data are expressed as mmole of Trolox equivalents per gram (mmol TE/g). […] Hydroxyl radical ORAC (HOR-AC) is expressed as mmole caffeic acid equivalent per gram (mmol CAE/g). […] The peroxyl nitrite ORAC (NORAC) result is expressed as mmol TE/g. […] Radical-scavenging activity was measured by the change in absorbance at 517 nm with the DPPH result expressed as mmol TE/g. […] The FRAP result is expressed as mmol TE/g (Ou et al. 2002b).

[3] = Singlet oxygen absorbance capacity (SOAC); details: expressed as mmol VtE/g
Excerpt: [table] Alpha-tocopherol (vitamin E) was used as the calibration standard, and the SOAC result is expressed as mmol VtE/g. The higher the SOAC score, the higher the singlet oxygen-quenching capacity. […] Singlet oxygen has been postulated to be a highly reactive and toxic intermediate against skin. It is known that the acne-causing bacterium P. acnes naturally produces high amounts of intracellular porphyrins, mostly coproporphyrin (Ashkenazi et al. 2003). Singlet oxygen can be generated on the skin surface from P. acnes porphyrins under sunlight and induce serious skin damage ([…] et al. 1996 Biochem. Biophys. Res. Commun. 223: 578-582). Various skin disorders progress through a singlet oxygen-dependent mechanism, including acne, atopic dermatitis, and skin aging. Both hydrophilic and lipophilic oxygen radical absorbance capacity (ORAC) assays were carried out at Brunswick Laboratory (Wareham, Mass.) based on the modified ORACfl method reported by Ou et al. (2001 J. Agric. Food Chem. 49: 4619-4626, 2002 J. Agr. Food Chem. 50: 3122-3128). Trolox, a water-soluble vitamin E analog, was used as the calibration standard. The data are expressed as mmole of Trolox equivalents per gram (mmol TE/g). The acceptable precision of the ORAC assay is a 15% relative standard deviation. Caffeic acid was used as the calibration standard. Hydroxyl radical ORAC (HOR-AC) is expressed as mmole caffeic acid equivalent per gram (mmol CAE/g). Trolox was used as the calibration standard. The peroxyl nitrite ORAC (NORAC) result is expressed as mmol TE/g. Alpha-tocopherol (vitamin E) was used as the calibration standard, and the singlet oxygen absorbance capacity (SOAC) result is expressed as mmole a-tocopherol equivalent (mmol VtE) per gram (Aubry et al. 1989). […] Radical-scavenging activity was measured by the change in absorbance at 517 nm with the DPPH result expressed as mmol TE/g. […] The FRAP result is expressed as mmol TE/g (Ou et al. 2002b). Superoxide dismutase (SOD) was used as a calibration standard; the SOD result is expressed as kilo unit SOD equivalent (kunitSODeq) per gram.

## O=C1O[C@H]([C@@H](O)CO)C(O)=C1O [Vitamin C, reference compound]
[1]
  ORAC-Total (Trolox equivalent): 1.4 Trolox equivalent

## Cc1c(C)c2c(c(C)c1O)CC[C@@](C)(CCC[C@H](C)CCC[C@H](C)CCCC(C)C)O2 [Vitamin E, Alpha-tocopherol, reference compound]
[2]
  ORAC-L (Trolox equivalent): 0.75 Trolox equivalent
[1]
  ORAC-Total (Trolox equivalent): 0.75 Trolox equivalent
[3]
  SOAC (Vitamin E equivalent): 1.0 Vitamin E equivalent
